Measurements from PubChem BioAssay (NCI).
Several values for one entry are separate records, joined by “and”; a condition that tells them apart may be missing. Equal values may be shown once.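 A five-concentration, 48-hour dose response in 96-well plates underlies each endpoint, interpolated linearly between surrounding concentrations. The concentration for 50% growth inhibition is given as GI50. TGI is the concentration that stops growth completely.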

Columns and labels:
Assay in all cases: NCI-60 cell line screen, 48 h
A498 renal = tested on: A498 renal
RPMI-8226 leukemia = tested on: RPMI-8226 leukemia
SK-MEL-28 melanoma = tested on: SK-MEL-28 melanoma
MDA-MB-231 breast = tested on: MDA-MB-231 breast
SK-MEL-5 melanoma = tested on: SK-MEL-5 melanoma
BT-549 breast = tested on: BT-549 breast
K-562 leukemia = tested on: K-562 leukemia
HL-60(TB) leukemia = tested on: HL-60(TB) leukemia
DMS 114 small cell lung = tested on: DMS 114 small cell lung
LXFL 529 NSCLC = tested on: LXFL 529 NSCLC

| Compound | TGI (A498 renal) | TGI (RPMI-8226 leukemia) | TGI (SK-MEL-28 melanoma) | TGI (MDA-MB-231 breast) | TGI (SK-MEL-5 melanoma) | TGI (BT-549 breast) | TGI (K-562 leukemia) | TGI (HL-60(TB) leukemia) | GI50 (A498 renal) [µM] | GI50 (RPMI-8226 leukemia) [µM] | GI50 (SK-MEL-28 melanoma) [µM] | GI50 (MDA-MB-231 breast) [µM] | GI50 (SK-MEL-5 melanoma) [µM] | GI50 (BT-549 breast) [µM] | GI50 (K-562 leukemia) [µM] | GI50 (HL-60(TB) leukemia) [µM] | TGI (DMS 114 small cell lung) [µM] | TGI (LXFL 529 NSCLC) [µM] | GI50 (LXFL 529 NSCLC) [µM] | GI50 (DMS 114 small cell lung) [µM] |
| --- | --- | --- | --- | --- | --- | --- | --- | --- | --- | --- | --- | --- | --- | --- | --- | --- | --- | --- | --- | --- |
| O=C(O)C1CCCN1 (stereo unspecified) | > 100 µM | > 100 µM | > 100 µM | > 100 µM | > 100 µM | > 100 µM | > 100 µM | > 100 µM |  |  |  |  |  |  |  |  |  |  |  |  |
| COc1ccc2c(c1[N+](=O)[O-])CC[C@@H]1[C@@H]2CC[C@]2(C)C(=O)CC[C@@H]12 | > 25 µM and 791 µM | > 1000 µM |  | > 905 µM | > 1000 µM | > 1000 µM |  |  | 352 | > 1000 | > 843 | 400 | 502 | 470 | > 1000 | > 1000 | 25 |  |  |  |
| O=C(Nc1ccccc1/C=C/c1n[nH]c2ccccc12)c1ccccc1 | 3.21 µM | 12.8 µM | 17.7 µM | 15.7 µM | 16.5 µM | 16.1 µM | 12.6 µM | 16.2 µM | 1.42 | 3.07 | 4.31 | 3.45 | 3.81 | 3.97 | 3.47 | 0.589 |  |  |  |  |
| Clc1ccc2c(NCCCCNc3nc(N4CCOCC4)nc4ccccc34)ccnc2c1 | 4.28 µM | 7.21 µM | 4.03 µM | 4.5 µM | 3.3 µM | 9.42 µM | 11.2 µM | 4.3 µM | 1.83 | 2.8 | 2.03 | 2.1 | 1.83 | 2.96 | 1.43 | 2.27 |  |  |  |  |
| O=c1oc2ccccc2cc1P(=O)(O)O | > 100 µM | > 100 µM | > 100 µM | > 100 µM | > 100 µM | > 100 µM | > 100 µM | > 100 µM |  |  |  |  |  |  |  |  |  |  |  |  |
| C[C@]12CC[C@H]3[C@@H](CCC4=CC(=O)CC[C@@]43C)[C@]1(O)CC[C@]2(O)C(=O)CO | > 100 µM | > 100 µM | > 100 µM | > 100 µM | > 100 µM | > 100 µM | > 100 µM | > 100 µM |  |  |  |  |  |  |  |  |  |  |  |  |
| CCCCCCCCCCCC1=NC(C)(C)CN1C(C)C | 19.3 µM | 3.66 µM | 3.37 µM | 14 µM | 4.34 µM | 23.4 µM | 5.82 µM | 4.55 µM | 4.78 | 1.44 | 1.78 | 3.67 | 2.05 | 9.22 | 1.94 | 2.14 |  |  |  |  |
| O=NN(CC1(O)OCC(O)C(O)C1O)C(Cc1c[nH]c2ccccc12)C(=O)O (stereo unspecified) | > 100 µM | > 100 µM | > 100 µM |  | > 100 µM |  | > 100 µM | > 100 µM |  |  |  |  |  |  |  |  | > 100 |  |  |  |
| CN(C)C(=C1C(Br)=C(Br)C(Br)=C1Br)N(C)C |  | 76.7 µM | > 100 µM |  | > 100 µM |  | > 100 µM | > 100 µM |  |  |  |  |  |  |  |  | > 100 | > 100 |  |  |
| O=C1C2C3SC(c4cc5ccccc5cc43)C2C(=O)N1c1ccccc1 (stereo unspecified) | > 100 µM | > 100 µM | > 100 µM |  | > 100 µM |  | > 100 µM | > 100 µM |  |  |  |  |  |  |  |  | > 100 | > 100 |  |  |
| O=C(O)c1ccccc1NS(=O)(=O)c1ccc(Cl)cc1 |  | > 100 µM | > 100 µM |  | > 100 µM |  | > 100 µM |  |  |  |  |  |  |  |  |  | > 100 | > 100 |  |  |
| CN(C)CCN1C(=O)c2cccc3cc(N)cc(c23)C1=O | 13.8 µM and 8.93 µM | 25.2 µM and 19.9 µM | 27.8 µM and 19.6 µM | 34.8 µM and 9.64 µM | 4.44 µM and 6.46 µM | 28.3 µM and 13.1 µM | > 100 µM and 37.4 µM | 59.2 µM and 16.2 µM |  | 3.37 |  | 8.01 | 1.88 | 11.2 |  | 5.29 | 12.7 |  |  |  |
| CN(N=O)C(=O)NC(CCCCNC(=O)OCc1ccccc1)C(=O)OCc1ccccc1 (stereo unspecified) | > 100 µM | 95.4 µM | 56.1 µM |  | 45.4 µM |  | > 100 µM | 48.7 µM |  |  |  |  |  |  |  |  | 72.6 | 94 |  |  |
| Cc1ccc(NC(=O)c2ccoc2)cc1-c1ccc(C(=O)NCC2CC2)cc1 | > 25 µM | > 25 µM | > 25 µM | > 25 µM | > 25 µM | > 25 µM | > 25 µM | > 25 µM | > 11.3 | > 16.2 | > 25 | > 22.6 | 7.75 | > 19.7 | > 18.6 | > 20.4 |  |  |  |  |
| CN(c1ccccc1)c1nc(=[N+](C)C)ss1 | > 100 µM |  | > 100 µM |  | > 100 µM |  | > 100 µM | > 100 µM |  |  |  |  |  |  |  |  | > 100 | > 100 |  |  |
| CCC(=O)N1C(=S)SC[C@H]1C(=O)OC | > 100 µM |  | > 100 µM |  | > 100 µM |  | > 100 µM | > 100 µM |  |  |  |  |  |  |  |  | > 100 | > 100 |  |  |
| O=C(c1ccccc1)[C@H]1Nc2ccc(Cl)cc2[C@H]2c3ccccc3O[C@H]21 | 24.5 µM | > 100 µM | 25.8 µM |  | 27.5 µM |  | 36.7 µM |  |  |  |  |  |  |  |  |  | 40.1 | 28.5 |  |  |
| COCCn1c(Nc2ccc(C(=O)NO)cc2)nc2ccccc21 | 9.17 µM | > 100 µM | 21 µM | 44.7 µM | 12.9 µM | 67.9 µM | > 100 µM | > 100 µM | 2.64 | 3.7 | 4.94 | 4.65 | 3.55 | 15.2 | 3.03 | 3.63 |  |  |  |  |
| O=C1CN=C(c2ccccc2)c2ccncc2N1 | > 100 µM |  | > 100 µM |  | > 100 µM |  | > 100 µM | > 100 µM |  |  |  |  |  |  |  |  | > 100 | > 100 |  |  |
| CC(C)(C)CNCCO | > 100 µM | > 100 µM | > 100 µM | > 100 µM | > 100 µM | > 100 µM | > 100 µM | > 100 µM |  |  |  |  |  |  |  |  |  |  |  |  |
| O=c1c2ccccc2c(=O)n2n1-c1cccc(c1)CSSCc1cccc-2c1 |  | > 100 µM | > 100 µM |  | > 100 µM |  | > 100 µM |  |  | > 100 | > 100 |  | > 100 |  | > 100 |  | > 100 | > 100 | > 100 | > 100 |
